Assay results from patent US20050176655A1, “Novel macrolide derivatives havaing effect of potentiating antifungal activity” (priority 2002, published 2005).

Legend:
Experiment in all cases: Paper disk method, enhancing action for activities of azole antifungal agents
Assay type in all cases: cell-based
[1] = system: Candida albicans ATCC 64548; conditions: 24 hours; for Inhibition activity (inhibition ring mm) C. albicans ATCC 64548 GYM / Transparency of the inhibition ring C. albicans ATCC 64548 GYM: miconazole 0.03 μg/ml; for Inhibition activity (inhibition ring mm) C. albicans ATCC 64548 GYF / Transparency of the inhibition ring C. albicans ATCC 64548 GYF: fluconazole 0.5 μg/ml
Summary of the method: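 GY agar (pH 6.0) seeded with C. albicans ATCC 64548 precultured in Waksman broth at 27° C for 40 hours, supplemented with sub-growth-inhibitory miconazole 0.03 μg/ml or fluconazole 0.5 μg/ml. Paper disk method; inhibition-zone diameter (mm) read after 24 hours, transparency graded A–E.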

[2] = system: fluconazole resistant Candida albicans ATCC 64550; conditions: 24 hours; for Inhibition activity (inhibition ring mm) C. albicans ATCC 64550 GYF / Transparency of the inhibition ring C. albicans ATCC 64550 GYF: fluconazole 30 μg/ml; for Inhibition activity (inhibition ring mm) C. albicans ATCC 64550 GYM / Transparency of the inhibition ring C. albicans ATCC 64550 GYM: miconazole 0.15 μg/ml
Summary of the method: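 Paper disk assay on GY agar (pH 6.0) seeded with Waksman-broth-grown C. albicans ATCC 64550 (0.1% inoculum). Medium was supplemented with sub-growth-inhibitory miconazole 0.15 μg/ml or fluconazole 30 μg/ml. After 24 h, inhibition-zone diameter was measured in mm and transparency graded A–E (A most transparent, E opaque).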

[3] = system: Aspergillus niger ATCC 6275; conditions: 48 hours; for Inhibition activity (inhibition ring mm) A. niger ATCC 6275 GYF / Transparency of the inhibition ring A. niger ATCC 6275 GYF: fluconazole 10 μg/ml; for Inhibition activity (inhibition ring mm) A. niger ATCC 6275 GYM / Transparency of the inhibition ring A. niger ATCC 6275 GYM: miconazole 0.1 μg/ml; for Inhibition activity (inhibition ring mm) A. niger ATCC 6275 GY / Transparency of the inhibition ring A. niger ATCC 6275 GY: GY medium (control, no azole)
Summary of the method: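 Paper-disk assay on A. niger ATCC 6275 spores (0.2%) seeded on GY agar pH 6.0. After 48 h, inhibition-zone diameter recorded in mm and transparency graded A (transparent) to E (opaque).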

| Compound | Inhibition activity (inhibition ring mm) C. albicans ATCC 64548 GYM ([1]; 10 μg/8 mm disk) [mm] | Transparency of the inhibition ring C. albicans ATCC 64548 GYM ([1]; 10 μg/8 mm disk) | Inhibition activity (inhibition ring mm) C. albicans ATCC 64548 GYF ([1]; 50 μg/8 mm disk) [mm] | Transparency of the inhibition ring C. albicans ATCC 64548 GYF ([1]; 50 μg/8 mm disk) | Inhibition activity (inhibition ring mm) C. albicans ATCC 64548 GYM ([1]; 50 μg/8 mm disk) [mm] | Transparency of the inhibition ring C. albicans ATCC 64548 GYM ([1]; 50 μg/8 mm disk) | Inhibition activity (inhibition ring mm) C. albicans ATCC 64550 GYF ([2]; 10 μg/8 mm disk) [mm] | Transparency of the inhibition ring C. albicans ATCC 64550 GYF ([2]; 10 μg/8 mm disk) | Inhibition activity (inhibition ring mm) C. albicans ATCC 64550 GYF ([2]; 50 μg/8 mm disk) [mm] | Transparency of the inhibition ring C. albicans ATCC 64550 GYF ([2]; 50 μg/8 mm disk) | Inhibition activity (inhibition ring mm) C. albicans ATCC 64550 GYM ([2]; 50 μg/8 mm disk) [mm] | Transparency of the inhibition ring C. albicans ATCC 64550 GYM ([2]; 50 μg/8 mm disk) | Inhibition activity (inhibition ring mm) A. niger ATCC 6275 GYF ([3]; 10 μg/8 mm disk) [mm] | Transparency of the inhibition ring A. niger ATCC 6275 GYF ([3]; 10 μg/8 mm disk) | Inhibition activity (inhibition ring mm) A. niger ATCC 6275 GY ([3]; 50 μg/8 mm disk) [mm] | Transparency of the inhibition ring A. niger ATCC 6275 GY ([3]; 50 μg/8 mm disk) | Inhibition activity (inhibition ring mm) A. niger ATCC 6275 GYF ([3]; 50 μg/8 mm disk) [mm] | Transparency of the inhibition ring A. niger ATCC 6275 GYF ([3]; 50 μg/8 mm disk) | Inhibition activity (inhibition ring mm) A. niger ATCC 6275 GYM ([3]; 50 μg/8 mm disk) [mm] | Transparency of the inhibition ring A. niger ATCC 6275 GYM ([3]; 50 μg/8 mm disk) | further results |
| --- | --- | --- | --- | --- | --- | --- | --- | --- | --- | --- | --- | --- | --- | --- | --- | --- | --- | --- | --- | --- | --- |
| CCCCCC(=O)OC1C(C)OC(OC2C(C)C(=O)OC(C(C)(O)C(CC)OC(=O)CCCCC)C(C)C3=C(C)CC(C)(O3)C(OC3OC(C)CC(N(C)C)C3O)C2C)CC1(C)OC (centres unmarked) [Compound 777, 4″,13-Di-O-hexanoyl-8,9-Anhydro-pseudo-erythromycin A 6,9-hemiketal] | 11 | D (Growth of test organism was inhibited 35% or more and 55% or less.) | 11 | D (Growth of test organism was inhibited 35% or more and 55% or less.) | 14 | A (Growth of test organism was inhibited 95% or more.) | 11 | D (Growth of test organism was inhibited 35% or more and 55% or less.) | 14 | A (Growth of test organism was inhibited 95% or more.) | 14 | A (Growth of test organism was inhibited 95% or more.) | 11 | E (Growth of test organism was inhibited 35% or less.) | 9 | E (Growth of test organism was inhibited 35% or less.) | 17 | D (Growth of test organism was inhibited 35% or more and 55% or less.) | 13 | B (Growth of test organism was inhibited 75% of more and 95% or less.) | Inhibition activity (inhibition ring mm) A. niger ATCC 6275 GYM ([3]; 10 μg/8 mm disk): 11 mm; Transparency of the inhibition ring A. niger ATCC 6275 GYM ([3]; 10 μg/8 mm disk): E (Growth of test organism was inhibited 35% or less.) |
| CCCCCC(=O)OC1C(C)OC(OC2C(C)C(=O)OC(C(C)(O)C(CC)OC(=O)CCCCC)C(C)C3=C(C)CC(C)(O3)C(OC3OC(C)CC(NC)C3O)C2C)CC1(C)OC (centres unmarked) [Compound 852] |  |  |  |  | 9 | A (Growth of test organism was inhibited 95% or more.) | 9 | C (Growth of test organism was inhibited 55% or more and 75% or less.) | 11 | A (Growth of test organism was inhibited 95% or more.) | 10 | B (Growth of test organism was inhibited 75% of more and 95% or less.) |  |  | 9 | E (Growth of test organism was inhibited 35% or less.) | 8 | D (Growth of test organism was inhibited 35% or more and 55% or less.) | 8 | C (Growth of test organism was inhibited 55% or more and 75% or less.) | Inhibition activity (inhibition ring mm) C. albicans ATCC 64548 GYM ([1]; 100 μg/8 mm disk): 10 mm; Transparency of the inhibition ring C. albicans ATCC 64548 GYM ([1]; 100 μg/8 mm disk): A (Growth of test organism was inhibited 95% or more.); Inhibition activity (inhibition ring mm) C. albicans ATCC 64550 GYM ([2]; 10 μg/8 mm disk): 9 mm; Transparency of the inhibition ring C. albicans ATCC 64550 GYM ([2]; 10 μg/8 mm disk): C (Growth of test organism was inhibited 55% or more and 75% or less.); Inhibition activity (inhibition ring mm) C. albicans ATCC 64550 GYF ([2]; 100 μg/8 mm disk): 12 mm; Transparency of the inhibition ring C. albicans ATCC 64550 GYF ([2]; 100 μg/8 mm disk): A (Growth of test organism was inhibited 95% or more.); Inhibition activity (inhibition ring mm) C. albicans ATCC 64550 GYM ([2]; 100 μg/8 mm disk): 12 mm; Transparency of the inhibition ring C. albicans ATCC 64550 GYM ([2]; 100 μg/8 mm disk): B (Growth of test organism was inhibited 75% of more and 95% or less.); Inhibition activity (inhibition ring mm) A. niger ATCC 6275 GY ([3]; 100 μg/8 mm disk): 10 mm; Transparency of the inhibition ring A. niger ATCC 6275 GY ([3]; 100 μg/8 mm disk): E (Growth of test organism was inhibited 35% or less.); Inhibition activity (inhibition ring mm) A. niger ATCC 6275 GYF ([3]; 100 μg/8 mm disk): 9 mm; Transparency of the inhibition ring A. niger ATCC 6275 GYF ([3]; 100 μg/8 mm disk): D (Growth of test organism was inhibited 35% or more and 55% or less.); Inhibition activity (inhibition ring mm) A. niger ATCC 6275 GYM ([3]; 100 μg/8 mm disk): 9 mm; Transparency of the inhibition ring A. niger ATCC 6275 GYM ([3]; 100 μg/8 mm disk): A (Growth of test organism was inhibited 95% or more.) |
| CCCCCC(=O)OC1C(C)OC(OC2C(C)C(=O)OC(C(C)(O)C(CC)OC(=O)CCCCC)C(C)C3=C(C)CC(C)(O3)C(OC3OC(C)CC(N(C)C)C3OC(C)=O)C2C)CC1(C)OC (centres unmarked) [Compound 772, 2′-O-acetyl-4″,13-Di-O-hexanoyl-8,9-Anhydro-pseudoerythromycin A 6,9-hemiketal] | 14 | B (Growth of test organism was inhibited 75% of more and 95% or less.) | 10 | D (Growth of test organism was inhibited 35% or more and 55% or less.) | 12 | B (Growth of test organism was inhibited 75% of more and 95% or less.) | 11 | E (Growth of test organism was inhibited 35% or less.) | 14 | B (Growth of test organism was inhibited 75% of more and 95% or less.) | 12 | A (Growth of test organism was inhibited 95% or more.) | 10 | D (Growth of test organism was inhibited 35% or more and 55% or less.) | 12 | E (Growth of test organism was inhibited 35% or less.) | 10 | D (Growth of test organism was inhibited 35% or more and 55% or less.) | 13 | A (Growth of test organism was inhibited 95% or more.) | Inhibition activity (inhibition ring mm) C. albicans ATCC 64548 GYF ([1]; 10 μg/8 mm disk): 9 mm; Transparency of the inhibition ring C. albicans ATCC 64548 GYF ([1]; 10 μg/8 mm disk): D (Growth of test organism was inhibited 35% or more and 55% or less.); Inhibition activity (inhibition ring mm) A. niger ATCC 6275 GYM ([3]; 10 μg/8 mm disk): 12 mm; Transparency of the inhibition ring A. niger ATCC 6275 GYM ([3]; 10 μg/8 mm disk): E (Growth of test organism was inhibited 35% or less.) |
| CCC(OC(C)=O)C(C)(O)C1OC(=O)C(C)C(OC2CC(C)(OC)C(OC(C)=O)C(C)O2)C(C)C(OC2OC(C)CC(N(C)C)C2O)C2(C)CC(C)=C(O2)C1C (centres unmarked) [Compound 755, 4″,13-Di-O-acetyl-8,9-Anhydro-pseudo erythromycin A 6,9-hemiketal] |  |  |  |  |  |  |  |  |  |  |  |  |  |  |  |  |  |  | 16 | E (Growth of test organism was inhibited 35% or less.) | Inhibition activity (inhibition ring mm) C. albicans ATCC 64548 GYM ([1]; 100 μg/8 mm disk): 17 mm; Transparency of the inhibition ring C. albicans ATCC 64548 GYM ([1]; 100 μg/8 mm disk): D (Growth of test organism was inhibited 35% or more and 55% or less.); Inhibition activity (inhibition ring mm) C. albicans ATCC 64550 GYM ([2]; 100 μg/8 mm disk): 10 mm; Transparency of the inhibition ring C. albicans ATCC 64550 GYM ([2]; 100 μg/8 mm disk): E (Growth of test organism was inhibited 35% or less.) |
